Assay results: the supplement of paper PMC10307832

Legend:
Test in all cases: relative viability (nuclei count vs DMSO), 5 days (fraction); higher = more cells survive
AGI-6780 + OSI-027 = compound: O=C(Nc1cccc(C(F)(F)F)c1)Nc1cc(S(=O)(=O)NC2CC2)ccc1-c1ccsc1 [AGI-6780] + COc1cccc2cc(-c3nc([C@H]4CC[C@H](C(=O)O)CC4)n4ncnc(N)c34)[nH]c12 [OSI-027] (partner 0.5 µM)
Outline: (§1)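 Medians of duplicate plates are given as relative viability. That measure is the nuclei count in treated wells divided by the count in vehicle wells. Counts were taken on 4× images of lung cancer cell lines in 1536-well plates, 5 days after pin-tool dosing the day after seeding with one drug alone or a fixed anchor-drug dose plus five library-drug doses (not always all listed) in √10 steps.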

AGI-6780 + Lapatinib = compound: O=C(Nc1cccc(C(F)(F)F)c1)Nc1cc(S(=O)(=O)NC2CC2)ccc1-c1ccsc1 [AGI-6780] + CS(=O)(=O)CCNCc1ccc(-c2ccc3ncnc(Nc4ccc(OCc5cccc(F)c5)c(Cl)c4)c3c2)o1 [Lapatinib] (partner 2 µM)
Outline: as §1

AGI-6780 + Linsitinib = compound: O=C(Nc1cccc(C(F)(F)F)c1)Nc1cc(S(=O)(=O)NC2CC2)ccc1-c1ccsc1 [AGI-6780] + C[C@]1(O)C[C@@H](c2nc(-c3ccc4ccc(-c5ccccc5)nc4c3)c3c(N)nccn32)C1 [Linsitinib] (partner 1 µM)
Outline: as §1

AGI-6780 + Alpelisib = compound: O=C(Nc1cccc(C(F)(F)F)c1)Nc1cc(S(=O)(=O)NC2CC2)ccc1-c1ccsc1 [AGI-6780] + Cc1nc(NC(=O)N2CCC[C@H]2C(N)=O)sc1-c1ccnc(C(C)(C)C(F)(F)F)c1 [Alpelisib] (partner 2 µM)
Outline: as §1

Row | Cell Line | relative viability (AGI-6780 + OSI-027; first compound 0.08 µM) | relative viability (AGI-6780 + OSI-027; first compound 0.253 µM) | relative viability (AGI-6780 + OSI-027; first compound 0.8 µM) | relative viability (AGI-6780 + OSI-027; first compound 2.53 µM) | relative viability (AGI-6780 + OSI-027; first compound 8 µM) | relative viability (AGI-6780 + Lapatinib; first compound 0.08 µM) | relative viability (AGI-6780 + Lapatinib; first compound 0.253 µM) | relative viability (AGI-6780 + Lapatinib; first compound 0.8 µM) | relative viability (AGI-6780 + Lapatinib; first compound 8 µM) | relative viability (AGI-6780 + Linsitinib; first compound 0.08 µM) | relative viability (AGI-6780 + Linsitinib; first compound 0.253 µM) | relative viability (AGI-6780 + Linsitinib; first compound 0.8 µM) | relative viability (AGI-6780 + Linsitinib; first compound 8 µM) | relative viability (AGI-6780 + Alpelisib; first compound 0.08 µM) | relative viability (AGI-6780 + Alpelisib; first compound 0.253 µM) | relative viability (AGI-6780 + Alpelisib; first compound 0.8 µM) | relative viability (AGI-6780 + Alpelisib; first compound 8 µM) | relative viability (AGI-6780 + Lapatinib; first compound 2.53 µM) | relative viability (AGI-6780 + Linsitinib; first compound 2.53 µM) | relative viability (AGI-6780 + Alpelisib; first compound 2.53 µM)
1 | NCI-H1666 | 0.899 | 0.828 | 0.809 | 0.761 | 1.01 | 0.784 | 0.597 | 0.578 | 0.73 | 0.947 | 0.92 | 0.811 | 0.927 | 1.08 | 0.876 | 1.01 | 0.927 | – | – | –
2 | NCI-H1734 | 0.588 | 0.665 | 0.621 | 0.442 | 0.573 | 0.961 | 1.09 | 1.07 | 1.07 | 1.01 | 0.975 | 0.728 | 0.945 | 0.752 | 0.705 | 0.671 | 0.733 | – | – | –
3 | NCI-H1755 | 0.836 | 0.758 | 0.677 | 0.503 | 0.666 | 1.03 | 0.959 | 0.984 | 1.04 | 0.987 | 1.01 | 0.999 | 0.923 | 0.991 | 0.936 | 0.948 | 0.898 | 0.936 | 0.974 | 0.83
4 | NCI-H1792 | – | 0.71 | 0.704 | 0.663 | 0.643 | 0.805 | 0.893 | 1.14 | 0.914 | 0.53 | 0.519 | 0.519 | 0.408 | 0.763 | 0.677 | 0.693 | 0.558 | 0.883 | 0.544 | 0.702
5 | NCI-H1793 | 0.302 | 0.27 | 0.359 | 0.197 | 0.293 | 0.819 | 0.811 | 0.779 | 0.723 | 0.849 | 0.881 | 1.11 | 0.93 | 0.744 | 0.831 | 0.943 | 0.675 | 0.491 | 0.526 | 0.562
6 | NCI-H1915 | 0.678 | 0.663 | 0.594 | 0.465 | 0.623 | 0.96 | 0.989 | 0.988 | 0.977 | 1.1 | 1.04 | 1.08 | 1.08 | 1.02 | 0.963 | 1.04 | 1.04 | 0.982 | 1.06 | 0.992
7 | NCI-H1944 | 0.414 | 0.466 | 0.461 | – | 0.425 | 0.928 | 0.861 | 0.784 | 0.92 | 1.22 | 1.28 | 1.24 | 1.13 | 0.862 | 0.886 | 0.821 | 0.767 | 0.544 | 0.931 | 0.7
8 | NCI-H1975 | 0.813 | 0.751 | 0.767 | – | 0.67 | 0.861 | 1.01 | 0.801 | 0.951 | 1.11 | 0.986 | 0.912 | 0.969 | 0.71 | 0.62 | 0.653 | 0.523 | 0.875 | 1.07 | 0.526
9 | NCI-H1993 | 0.367 | 0.614 | 0.46 | 0.588 | 0.554 | 0.91 | 0.86 | 0.804 | 0.933 | 0.808 | 0.801 | 0.765 | 0.682 | 0.788 | 0.675 | 0.736 | 0.693 | 0.749 | 0.703 | 0.653
10 | NCI-H2009 | 0.667 | 0.7 | 0.575 | 0.668 | 0.696 | 0.952 | 0.889 | 0.976 | 0.959 | 1.18 | 1.21 | 1.12 | 1.15 | 1.21 | 1.12 | 1.17 | 1.25 | 0.917 | 1.25 | 1.13
11 | NCI-H2023 | 0.434 | 0.455 | 0.447 | 0.301 | 0.337 | 0.902 | 0.992 | 1 | 0.906 | 0.711 | 0.677 | 0.697 | 0.698 | 0.674 | 0.595 | 0.596 | 0.617 | 0.556 | 0.648 | 0.447
12 | NCI-H2085 | 0.77 | 0.825 | 0.805 | 0.513 | 0.89 | 0.787 | 0.771 | 0.843 | 0.78 | 1.01 | 0.87 | 0.781 | 1.07 | 0.965 | 0.978 | 0.976 | 0.885 | 0.724 | 0.921 | 0.949
13 | NCI-H2087 | 0.866 | 0.564 | 0.608 | 0.405 | 0.626 | 1.04 | 1.05 | 0.926 | 0.98 | 1.06 | 0.891 | 0.85 | 0.883 | 1.17 | 1.1 | 1.15 | 1.14 | 0.976 | 0.984 | 0.983
14 | NCI-H2126 | 0.711 | 0.88 | 0.742 | 0.618 | 0.815 | 0.782 | 0.798 | 0.73 | 0.757 | 0.761 | 0.802 | 0.709 | 0.712 | 0.812 | 0.72 | 0.767 | 0.741 | 0.586 | 0.585 | 0.696
15 | NCI-H2228 | 0.617 | 0.589 | 0.488 | 0.367 | 0.685 | 1.2 | 1.05 | 0.825 | 1.27 | 0.8 | 1.07 | 0.604 | 0.629 | 0.904 | 0.831 | 0.563 | 0.635 | 0.771 | 0.754 | 0.618
16 | NCI-H2347 | 0.403 | 0.491 | 0.333 | 0.378 | 0.507 | 0.904 | 0.874 | 0.688 | 0.93 | 1.04 | 0.849 | 0.716 | 1.02 | 1 | 0.954 | 0.691 | 1.13 | 0.879 | 0.998 | 1
17 | NCI-H2405 | 0.671 | 0.651 | 0.525 | 0.549 | 0.596 | 1.05 | 1.08 | 0.938 | 1.1 | 0.931 | 0.933 | 0.687 | 0.845 | 0.895 | 0.824 | 0.506 | 0.767 | – | – | –
18 | NCI-H3122 | 0.998 | 0.913 | 1.08 | 0.727 | 1.01 | 1.02 | 0.987 | 1.09 | 1.08 | 1.03 | 0.982 | 1.01 | 1.04 | 0.876 | 0.859 | 0.892 | 0.822 | 1.02 | 1.08 | 0.633
19 | PC-3 [JPC-3] | 0.776 | 0.748 | 0.781 | 0.691 | 0.76 | 0.467 | 0.513 | 0.451 | 0.48 | 0.995 | 0.952 | 0.904 | 0.953 | 1.02 | 1.02 | 0.976 | 1.02 | 0.416 | 0.926 | 0.983
20 | PC-14 | 0.833 | 0.822 | 0.814 | 0.678 | 0.922 | 0.312 | 0.348 | 0.312 | 0.291 | 0.983 | 0.925 | 0.832 | 0.937 | 0.947 | 0.986 | 0.944 | 0.961 | 0.314 | 0.903 | 0.913
21 | RERF-LC-KJ | 0.579 | 0.719 | 0.614 | 0.465 | 0.454 | 0.828 | 0.923 | 0.788 | 0.859 | 0.863 | 1 | 0.837 | 0.845 | 0.784 | 0.824 | 0.779 | 0.75 | 0.675 | 0.822 | 0.672
22 | SK-LU-1 | 0.348 | 0.406 | – | 0.312 | 0.359 | 0.928 | 0.857 | 0.683 | 1.14 | 1.11 | 0.976 | 0.76 | 1.16 | 0.957 | 0.906 | 0.797 | 1.02 | 0.863 | 0.917 | 1
23 | SK-MES-1 | 0.635 | 0.662 | 0.561 | 0.448 | 0.509 | 0.482 | 0.524 | 0.441 | 0.427 | 1.08 | 1.06 | 0.92 | 1.09 | 0.877 | 0.926 | 0.898 | 0.789 | 0.407 | 0.984 | 0.894
24 | SW 1573 | 0.685 | 0.656 | 0.801 | – | 0.562 | 1.3 | 1.29 | 1.08 | 1.06 | 0.818 | 0.911 | 0.868 | 0.831 | 0.876 | 0.843 | 0.76 | 0.554 | 0.957 | 0.652 | 0.649
25 | UMC-11 | 0.488 | 0.452 | 0.473 | – | 0.509 | 1.03 | 0.92 | 1.09 | 1.16 | 0.868 | 0.968 | 1.08 | 0.987 | 0.938 | 0.866 | 1.07 | 0.947 | – | – | –
